Reference: US20220378756A1, “ACTIVATING PYRUVATE KINASE R” (FORMA Therapeutics, Inc., priority 2019, published 2022)
Where “and” joins values, the source holds several entries; their conditions need not be identical. Equal entries are not always repeated.

Experiments:
[1] = system: 2,3-DPG, ATP, p50, deformability of sickle RBCs; test: Phase 1, SCD patients single 700 mg dose: pharmacodynamics; format: in vivo, human
Method: In this study, SAD/MAD cohorts are randomized (3 to 1) to receive Compound 1 or placebo (P). Compound 1 was evaluated first in 4 healthy SAD cohorts and 4 healthy MAD (14-day dosing period) cohorts. Based on the safety, and PK/PD profile from HS, Compound 1 is then evaluated in 1 SCD SAD cohort and 2 SCD MAD cohorts. Specifically, based on the safety and pharmacokinetic/pharmacodynamics (PK/PD) profile in healthy volunteer studies, Compound 1 is evaluated in patients (pts) with SCD, first in a single dose (SD or SAD) cohort and then in multiple-dose (MD or MAD) cohorts (14-day and 12-week). Safety assessments include AEs, vital signs, ECGs and laboratory parameters. PK/PD blood sampling was performed on Day 1 (SAD/MAD) and Day 14 (MAD) and up to 72 h after the last dose and at the end-of-study visit. PD parameters included 2,3-DPG, ATP, and p50 in all cohorts with additional PD studies (including oxygen scan) performed only in the SCD cohorts. PD parameters included 2,3-DPG, ATP, p50, RBC deformability with controlled deoxygenation and reoxygenation (Lorrca® oxygen scan) and varying osmolality (Lorrca® osmoscan)). To maintain study blind, pt identifiers were removed when needed.
A potential exposure to the maximum PD response dose range to evaluate in patients with SCD was identified. Based on the safety and PK/PD profile in healthy volunteer studies, a 700 mg single dose was evaluated in patients with SCD (n=7). A single 700 mg dose of Compound 1 was selected to evaluate in patients with SCD to enable daily dosing cohorts at lower exposures.
The effects of a single dose of Compound 1 (700 mg) versus placebo on oxygen scan, oxygen affinity (p50), and osmoscan in SCD patients were evaluated. At the Point of Sickling (POS or PoS), polymerization of de-oxy HbS can affect the deformability of the RBCs and the elongation Index starts to decrease. The EImin refers to the lowest level of RBC deformability in the Oxygenscan. The lower the EImin the lower the deformability of the RBC. […] As shown in FIG. 53 and Table 25 (Oxygen affinity curve), Compound 1 increased O2 affinity (decreased p50) in all participants treated. […] These effects were transient, returning to baseline 3 to 7 days after the single dose of Compound 1.
The oxygen affinity of RBCs was measured in patient blood using a Hemox Analyzer (TCS Scientific Corp.), an automatic system for the recording of blood oxygen equilibrium curves and related phenomena. The Hemox Analyzer was used according to standard methods to determine the hemoglobin-oxygen dissociation curves for whole blood samples, numerically characterized by the p50, the partial pressure of oxygen at which hemoglobin is 50% saturated. […] In the case of hemoglobin, the wavelength of maximum absorbance is the measuring wavelength (560 nm), while the reference wavelength is at the isosbestic point at (570 nm). The absorbance at the isosbestic point remains unchanged during the deoxygenation process of the hemoglobin, however the measuring wavelength (560 nm) undergoes a drastic change in absorbance. This change is detected by the electronic circuitry and is plotted as the log/ratio change between the two wavelengths. The log/ratio measurement at 560 nm and 570 nm is utilized to measure the optical absorbance change during the deoxygenation of the hemoglobin. Simultaneously with the measurement of the hemoglobin absorbance, the oxygen concentration is directly measured in the sample using a Clark electrode. […]

[2] = biological target: T1, wt-PKR in mature human erythrocytes (Homo sapiens, UniProt P30613); test: Cell assay: PKR activation in purified human RBCs (Biovision Pyruvate Kinase Assay); format: cell-based; details: 3 hr treatment
T1 construct: host or cells: purified human RBCs from donors
T1 sequence (P30613 whole entry): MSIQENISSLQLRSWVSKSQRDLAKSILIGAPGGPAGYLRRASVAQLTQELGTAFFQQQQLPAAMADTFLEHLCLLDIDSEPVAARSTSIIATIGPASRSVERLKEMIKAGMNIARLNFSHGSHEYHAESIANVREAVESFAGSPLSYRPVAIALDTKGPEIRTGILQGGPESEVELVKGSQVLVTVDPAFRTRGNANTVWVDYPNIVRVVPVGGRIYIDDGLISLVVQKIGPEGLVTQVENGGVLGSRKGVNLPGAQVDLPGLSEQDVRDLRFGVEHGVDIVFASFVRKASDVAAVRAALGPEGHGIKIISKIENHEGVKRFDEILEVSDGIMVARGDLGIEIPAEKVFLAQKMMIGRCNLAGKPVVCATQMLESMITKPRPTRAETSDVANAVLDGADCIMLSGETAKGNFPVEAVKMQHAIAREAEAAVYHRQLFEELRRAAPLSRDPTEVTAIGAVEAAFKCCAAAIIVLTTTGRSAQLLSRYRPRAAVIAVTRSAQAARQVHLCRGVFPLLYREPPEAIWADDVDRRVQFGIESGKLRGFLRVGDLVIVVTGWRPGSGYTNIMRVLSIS
Method: The activation of wt-PKR by Compound 1 in mature human erythrocytes ex vivo was evaluated in purified RBCs purchased from Research Blood Components. Cells treated with Compound 1 for 3 hr in glucose-containing media were washed, lysed, and assayed using a Biovision Pyruvate Kinase Assay (K709-100). The assay was repeated multiple times to account for donor-to-donor variability and the relatively narrow dynamic range.

[3] = SCD patients, 24 hours after single 700-mg dose

With `O=C([C@H](CO)c1ccccc1)N1CC2=C(C1)CN(S(=O)(=O)c1cnc3c(c1)OCCO3)C2` (single isomer, unassigned) [Compound 1] as the molecule, how does the “decrease of 2,3-DPG blood concentrations” value [1, 3] read?
Its value is 26%.

And the “increase of ATP blood concentrations” value [1, 3]?
The value was 30%.

And the “Hb increase compared with placebo” value ([1]; SCD, 24 h after a single dose)?
The value was ~0.9 g/dL.

What about the “POS (Oxygenscan), post-dose (24 hours)” value ([1]; SCD, single 700 mg, median (range), pre-dose 35.4 (27.3, 38.8)) of the same molecule?
Its value is 24.0 (17.9, 31.8).

What about the “Ohyper (Osmoscan), post-dose (24 hours)” value ([1]; SCD, single 700 mg, median (range), pre-dose 380 (371, 399)) of the same molecule?
Its value is 400 (371, 412).

What about the “Max-Min (%)” value ([2]; individual replicates 1-4) of the same molecule?
Its value is <125% and <150% and <100% and <50%.

And the “Max-Min (%), mean maximum activation increase” value ([2]; mean of replicates)?
Its value is <100%.
